From US20230192700A1, “PYRAZOLOPYRAZINES ACTING ON CANCERS VIA INHIBITION OF CDK12” (Bayer Aktiengesellschaft, priority 2020, published 2023)

Assays:
[1] = target: T1, CYCLIN K (Homo sapiens, UniProt O75909); assay: CYCLIN K nuclear protein level: immunofluorescence/high content analysis in CAL-120 cells; assay type: cell-based; settings: 24 h, nuclear CCNK staining intensity, median, read-out: CYCLIN K degradation IF, DC50- [mol/l] (median)
T1 construct: endogenous in cells; host or cells: CAL-120 human breast cancer cells (DSMZ ACC 459)
T1 sequence (O75909 whole entry): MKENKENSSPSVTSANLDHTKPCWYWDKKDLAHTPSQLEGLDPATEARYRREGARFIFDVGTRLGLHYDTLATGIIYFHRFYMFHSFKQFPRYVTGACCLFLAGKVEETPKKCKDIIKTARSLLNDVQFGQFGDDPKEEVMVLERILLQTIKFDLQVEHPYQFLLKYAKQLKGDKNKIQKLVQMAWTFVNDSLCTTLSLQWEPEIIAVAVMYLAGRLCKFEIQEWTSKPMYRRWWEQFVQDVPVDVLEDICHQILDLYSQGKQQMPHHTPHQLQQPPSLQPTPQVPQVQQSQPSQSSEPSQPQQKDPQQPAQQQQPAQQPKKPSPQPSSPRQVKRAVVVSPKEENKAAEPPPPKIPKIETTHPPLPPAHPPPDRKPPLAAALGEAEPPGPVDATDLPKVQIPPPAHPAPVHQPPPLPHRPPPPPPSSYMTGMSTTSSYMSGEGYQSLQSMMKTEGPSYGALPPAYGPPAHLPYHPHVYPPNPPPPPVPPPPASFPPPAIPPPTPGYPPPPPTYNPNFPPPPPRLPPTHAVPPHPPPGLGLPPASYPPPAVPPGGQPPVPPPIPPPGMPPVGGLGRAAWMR
T1 sequence (Q9NYV4 whole entry partner): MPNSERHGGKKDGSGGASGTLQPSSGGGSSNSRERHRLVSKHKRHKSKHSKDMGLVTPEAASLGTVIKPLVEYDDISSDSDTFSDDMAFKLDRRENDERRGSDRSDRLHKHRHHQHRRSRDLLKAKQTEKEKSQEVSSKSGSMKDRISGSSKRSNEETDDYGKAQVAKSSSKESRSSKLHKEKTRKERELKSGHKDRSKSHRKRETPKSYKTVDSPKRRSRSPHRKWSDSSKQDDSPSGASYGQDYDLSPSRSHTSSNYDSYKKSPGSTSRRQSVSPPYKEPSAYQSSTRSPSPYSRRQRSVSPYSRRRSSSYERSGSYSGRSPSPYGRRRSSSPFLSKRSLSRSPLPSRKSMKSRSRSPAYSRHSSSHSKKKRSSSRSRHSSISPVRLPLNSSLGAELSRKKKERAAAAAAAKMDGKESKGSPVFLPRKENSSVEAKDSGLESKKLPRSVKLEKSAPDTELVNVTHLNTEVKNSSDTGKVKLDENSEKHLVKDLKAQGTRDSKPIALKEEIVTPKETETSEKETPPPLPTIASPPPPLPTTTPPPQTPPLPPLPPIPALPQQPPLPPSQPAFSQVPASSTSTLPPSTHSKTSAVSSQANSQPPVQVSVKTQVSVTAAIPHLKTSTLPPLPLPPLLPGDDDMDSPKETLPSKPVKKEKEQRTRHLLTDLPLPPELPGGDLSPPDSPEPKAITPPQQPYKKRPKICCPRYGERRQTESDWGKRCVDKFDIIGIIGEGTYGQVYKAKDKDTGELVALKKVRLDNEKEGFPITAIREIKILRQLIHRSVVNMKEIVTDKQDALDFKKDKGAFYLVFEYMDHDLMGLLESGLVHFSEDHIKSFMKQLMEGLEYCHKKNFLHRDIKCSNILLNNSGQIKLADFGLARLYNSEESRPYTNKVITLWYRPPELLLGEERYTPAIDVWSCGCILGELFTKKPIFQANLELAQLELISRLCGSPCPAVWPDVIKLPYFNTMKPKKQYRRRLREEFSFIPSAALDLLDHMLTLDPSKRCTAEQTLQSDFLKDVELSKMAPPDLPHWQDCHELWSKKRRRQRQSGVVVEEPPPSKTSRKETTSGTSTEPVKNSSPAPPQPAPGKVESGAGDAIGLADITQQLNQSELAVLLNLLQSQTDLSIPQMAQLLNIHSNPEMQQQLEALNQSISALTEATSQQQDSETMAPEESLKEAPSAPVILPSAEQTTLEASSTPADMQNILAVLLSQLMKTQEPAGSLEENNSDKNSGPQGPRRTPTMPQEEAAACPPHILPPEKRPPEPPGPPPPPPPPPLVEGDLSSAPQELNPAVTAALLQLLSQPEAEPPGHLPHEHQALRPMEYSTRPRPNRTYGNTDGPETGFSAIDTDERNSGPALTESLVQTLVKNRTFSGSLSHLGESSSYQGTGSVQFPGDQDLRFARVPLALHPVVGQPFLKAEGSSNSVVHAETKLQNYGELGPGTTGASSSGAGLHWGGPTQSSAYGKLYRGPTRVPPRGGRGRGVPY
Experimental: 7. CYCLIN K Nuclear Protein Level: Immunofluorescence/High Content Analysis
In the context of the present invention, the term “DC50 Cyclin K” refers to the DC50 values obtained according to the assay described in this section (7) herein below, i.e. the DC50 values for the degradation of Cyclin K.
CAL-120 human breast cancer cells (DSMZ ACC 459) are seeded in 1536-well microtiter plates (800 cells per well) containing 50 nanoL of compounds in Dose-Response. Control wells received DMSO or Reference Example 1. Plates are then incubated for 24 h at 37° C. in an humidified incubator and fixed with 4% PFA for 10 min. Then immunofluorescence (IF) against CYCLIN K (ThermoFisher Scientific CCNK Antibody # PA5-85020, rabbit, 1:200 dilution) is performed using standard IF protocols. Cells are then stained with Hoechst 33342 (Life Technologies, H-1399, 0.1 microg/mL) and imaged on an automated confocal microscopy system (e.g. Perkin Elmer Opera Phenix). Nuclear and cytoplasmic intensity as well as the nuclear/cytoplasmic intensity ratio is determined by automated image analysis using custom generated scripts (MetaXpress). Data is then transferred to Genedata Screener software, normalized to DMSO and control and DC50 values (degrading concentration to achieve 50% reduction of nuclear CCNK staining intensity relative to controls) are reported.

[2] = target: T2, CDK2/CyclinE (Homo sapiens, UniProt P24941); assay: CDK2/CycE kinase assay (TR-FRET); assay type: biochemical; settings: 2 mM ATP (high ATP); median; read-out: CDK2/CyclinE, 2 mM ATP (high ATP) IC50 - [mol/l] (median)
T2 construct: GST; purchased ProQinase GmbH (Freiburg, Germany); host or cells: insect cells (Sf9)
Excerpt: 2.4 CDK2/CycE Kinase Assay
CDK2/CycE-inhibitory activity of compounds of the present invention was quantified employing the CDK2/CycE TR-FRET assay as described in the following paragraphs.
Recombinant fusion proteins of GST and human CDK2 and of GST and human CycE, expressed in insect cells (Sf9) and purified by Glutathion-Sepharose affinity chromatography, were purchased from ProQinase GmbH (Freiburg, Germany). As substrate for the kinase reaction biotinylated peptide biotin-Ttds-YISPLKSPYKISEG (C-terminus in amid form) was used which can be purchased e.g. form the company JERINI peptide technologies (Berlin, Germany).
For the assay 50 nanoL of a 100 fold concentrated solution of the test compound in DMSO was pipetted into a black low volume 384 well microtiter plate or a black 1536 well microtiter plate (both Greiner Bio-One, Frickenhausen, Germany), 2 microL of a solution of CDK2/CycE in aqueous assay buffer [50 millimol/L Tris/HCl pH 8.0, 10 millimol/L MgCl2, 1.0 millimol/L dithiothreitol, 0.1 millimol/L sodium ortho-vanadate, 0.01% (v/v) Nonidet-P40 (Sigma)] were added and the mixture was incubated for 15 min at 22° C. to allow pre-binding of the test compounds to the enzyme before the start of the kinase reaction. Then the kinase reaction was started by the addition of 3 microL of a solution of adenosine-tri-phosphate (ATP, 3.33 millimol/L=>final conc. in the 5 microL assay volume is 2 millimol/L) and substrate (1.25 micromol/L=>final conc. in the 5 microL assay volume is 0.75 micromol/L) in assay buffer and the resulting mixture was incubated for a reaction time of 25 min at 22° C. The concentration of CDK2/CycE was adjusted depending of the activity of the enzyme lot and was chosen appropriate to have the assay in the linear range, typical concentrations were in the range of 10 ng/mL. The reaction was stopped by the addition of 3 microL of a solution of TR-FRET detection reagents (0.333 micromol/L streptavidine-XL665 [Cisbio Bioassays, Codolet, France] and 1.67 nanomol/L anti-RB(pSer807/pSer811)-antibody from BD Pharmingen [#558389] and 2 nanomol/L LANCE EU-W1024 labeled anti-mouse IgG antibody [Perkin-Elmer, product no. AD0077, as an alternative a Terbium-cryptate-labeled anti-mouse IgG antibody from Cisbio Bioassays can be used]) in an aqueous EDTA-solution (167 millimol/L EDTA, 0.2% (w/v) bovine serum albumin in 100 millimol/L HEPES pH 7.5).
The resulting mixture was incubated 1 h at 22° C. to allow the formation of complex between the phosphorylated biotinylated peptide and the detection reagents. Subsequently the amount of phosphorylated substrate was evaluated by measurement of the resonance energy transfer from the Eu-chelate to the streptavidine-XL. Therefore, the fluorescence emissions at 620 nm and 665 nm after excitation at 350 nm was measured in a TR-FRET reader, e.g. a Pherastar (BMG Labtechnologies, Offenburg, Germany) or a Viewlux (Perkin-Elmer). The ratio of the emissions at 665 nm and at […] was taken as the measure for the amount of phosphorylated substrate. The data were normalised (enzyme reaction without inhibitor=0% inhibition, all other assay components but no enzyme=100% inhibition).

DC50 [1] [nM] | IC50 [2] [nM] | SMILES
> 677 | > 20000 | c1ccc2[nH]c(CNc3nn(C4CCOCC4)c4nc(C5CC5)cnc34)nc2c1 [Example 16, N-[(1H-benzimidazol-2-yl)methyl]-6-cyclopropyl-1-(oxan-4-yl)-1H-pyrazolo[3,4-b]pyrazin-3-amine]
0.339 | > 20000 | CN1CCC(n2nc(NCc3nc4cc(Cl)c(Cl)cc4[nH]3)c3ncc(C4CC4)nc32)CC1 [Example 19, 6-cyclopropyl-N-[(5,6-dichloro-1H-benzimidazol-2-yl)methyl]-1-(1-methylpiperidin-4-yl)-1H-pyrazolo[3,4-b]pyrazin-3-amine]
1.22 | 17900 | COc1cccc2[nH]c(CNc3nn(C4CCOCC4)c4nc(C5CC5)cnc34)nc12 [Example 24, 6-cyclopropyl-N-[(4-methoxy-1H-benzimidazol-2-yl)methyl]-1-(oxan-4-yl)-1H-pyrazolo[3,4-b]pyrazin-3-amine]
0.543 | > 20000 | CN1CCC(n2nc(NCc3nc4cc(C(F)(F)F)ccc4[nH]3)c3ncc(C4CC4)nc32)CC1 [Example 25, 6-cyclopropyl-1-(1-methylpiperidin-4-yl)-N-{[5-(trifluoromethyl)-1H-benzimidazol-2-yl]methyl}-1H-pyrazolo[3,4-b]pyrazin-3-amine]
0.877 | > 20000 | Fc1ccc2[nH]c(CNc3nn(C4CCOCC4)c4nc(C5CC5)cnc34)nc2c1F [Example 32, 6-cyclopropyl-N-[(4,5-difluoro-1H-benzimidazol-2-yl)methyl]-1-(oxan-4-yl)-1H-pyrazolo[3,4-b]pyrazin-3-amine]
38.7 | > 20000 | c1ccc2[nH]c(CNc3nn(C4CCCC4)c4nc(C5CC5)cnc34)nc2c1 [Example 39, N-[(1H-benzimidazol-2-yl)methyl]-1-cyclopentyl-6-cyclopropyl-1H-pyrazolo[3,4-b]pyrazin-3-amine]
5.35 | > 20000 | O[C@H]1C[C@@H](n2nc(NCc3nc4ccccc4[nH]3)c3ncc(C4CC4)nc32)C1 [Example 40, cis-3-(3-{[(1H-benzimidazol-2-yl)methyl]amino}-6-cyclopropyl-1H-pyrazolo[3,4-b]pyrazin-1-yl)cyclobutan-1-ol]
4.79 | > 20000 | O[C@H]1C[C@H](n2nc(NCc3nc4ccccc4[nH]3)c3ncc(C4CC4)nc32)C1 [Example 43, trans-3-(3-{[(1H-benzimidazol-2-yl)methyl]amino}-6-cyclopropyl-1H-pyrazolo[3,4-b]pyrazin-1-yl)cyclobutan-1-ol]
2.29 | > 18200 | c1ccc2[nH]c(CNc3nn(C4C[C@H]5CC[C@@H](C4)O5)c4nc(C5CC5)cnc34)nc2c1 (stereo partly drawn) [Example 45, exo/endo-N-[(1H-benzimidazol-2-yl)methyl]-6-cyclopropyl-1-(8-oxabicyclo[3.2.1]octan-3-yl)-1H-pyrazolo[3,4-b]pyrazin-3-amine]
4.87 | > 20000 | OC[C@H]1C[C@H](n2nc(NCc3nc4ccccc4[nH]3)c3ncc(C4CC4)nc32)C1 [Example 46, [trans-3-(3-{[(1H-benzimidazol-2-yl)methyl]amino}-6-cyclopropyl-1H-pyrazolo[3,4-b]pyrazin-1-yl)cyclobutyl]methanol]
6.29 | > 20000 | OC[C@H]1C[C@@H](n2nc(NCc3nc4ccccc4[nH]3)c3ncc(C4CC4)nc32)C1 [Example 47, [cis-3-(3-{[(1H-benzimidazol-2-yl)methyl]amino}-6-cyclopropyl-1H-pyrazolo[3,4-b]pyrazin-1-yl)cyclobutyl]methanol]
25.7 | > 20000 | c1ccc2[nH]c(CNc3nn(C4CCC4)c4nc(C5CC5)cnc34)nc2c1 [Example 49, N-[(1H-benzimidazol-2-yl)methyl]-1-cyclobutyl-6-cyclopropyl-1H-pyrazolo[3,4-b]pyrazin-3-amine]
3.27 | > 20000 | O[C@H]1CC[C@H](n2nc(NCc3nc4ccccc4[nH]3)c3ncc(C4CC4)nc32)CC1 [Example 50, trans-4-(3-{[(1H-benzimidazol-2-yl)methyl]amino}-6-cyclopropyl-1H-pyrazolo[3,4-b]pyrazin-1-yl)cyclohexan-1-ol]
4.46 | > 20000 | O[C@H]1CC[C@@H](n2nc(NCc3nc4ccccc4[nH]3)c3ncc(C4CC4)nc32)CC1 [Example 51, cis-4-(3-{[(1H-benzimidazol-2-yl)methyl]amino}-6-cyclopropyl-1H-pyrazolo[3,4-b]pyrazin-1-yl)cyclohexan-1-ol]
92.6 | > 20000 | CC1(C)CC(n2nc(NCc3nc4ccccc4[nH]3)c3ncc(C4CC4)nc32)CC(C)(C)O1 [Example 52, N-[(1H-benzimidazol-2-yl)methyl]-6-cyclopropyl-1-(2,2,6,6-tetramethyloxan-4-yl)-1H-pyrazolo[3,4-b]pyrazin-3-amine]
6.41 | > 20000 | Fc1ccc2[nH]c(CNc3nn(C4CCOCC4)c4nc(C5CC5)cnc34)nc2c1 [Example 53, 6-cyclopropyl-N-[(5-fluoro-1H-benzimidazol-2-yl)methyl]-1-(oxan-4-yl)-1H-pyrazolo[3,4-b]pyrazin-3-amine]
3.31 | > 20000 | c1ccc2[nH]c(CNc3nn(C4CC5(COC5)C4)c4nc(C5CC5)cnc34)nc2c1 [Example 54, N-[(1H-benzimidazol-2-yl)methyl]-6-cyclopropyl-1-(2-oxaspiro[3.3]heptan-6-yl)-1H-pyrazolo[3,4-b]pyrazin-3-amine]
12.5 | > 20000 | c1ccc2[nH]c(CNc3nn(C4COC4)c4nc(C5CC5)cnc34)nc2c1 [Example 55, N-[(1H-benzimidazol-2-yl)methyl]-6-cyclopropyl-1-(oxetan-3-yl)-1H-pyrazolo[3,4-b]pyrazin-3-amine]
1.28 | > 20000 | O[C@H]1CC[C@H](n2nc(NCc3nc4cc(F)ccc4[nH]3)c3ncc(C4CC4)nc32)CC1 [Example 56, trans-4-(6-cyclopropyl-3-{[(5-fluoro-1H-benzimidazol-2-yl)methyl]amino}-1H-pyrazolo[3,4-b]pyrazin-1-yl)cyclohexan-1-ol]
37.4 | > 20000 | COCCn1nc(NCc2nc3ccccc3[nH]2)c2ncc(C3CC3)nc21 [Example 65, N-[(1H-benzimidazol-2-yl)methyl]-6-cyclopropyl-1-(2-methoxyethyl)-1H-pyrazolo[3,4-b]pyrazin-3-amine]
20.3 | > 20000 | OCCn1nc(NCc2nc3ccccc3[nH]2)c2ncc(C3CC3)nc21 [Example 66, 2-(3-{[(1H-benzimidazol-2-yl)methyl]amino}-6-cyclopropyl-1H-pyrazolo[3,4-b]pyrazin-1-yl)ethan-1-ol]
